From patent publication US20040147495A1, “Sapogenin derivatives, their synthesis and use, and methods based upon their use” (priority 2001, published 2004)

Tests used:
Sprague Dawley rats = test: Alzheimer's disease model (amyloid β + ibotenic acid): step-through test; assay type: in vivo, rat; details: for Step through test Error No: 18 mg/kg/day by gastric tube for two months, wrong responses in 5 min, * p < 0.05; for number of wrong responses in step-through test (in words): 18 mg/kg/day, 5 min
From the text: (§1) In addition the co-injection of amyloid β with a small amount of ibotenic acid into the rat hippocampus synergistically produces neuronal loss with infiltration of glial cells not only adjacent but also far from the injected site (Morimoto et al., 1998: Neuroscience, 84, 479-487).
(§2) Our studies used the method of Morimoto (Morimoto et al., 1998: Neuroscience, 84, 479-487) with some modifications (unilateral instead of bilateral injection). Three months old, Sprague Dawley rats, were randomly divided into different groups. Injection of amyloid β1-40 and ibotenic acid (both from Sigma) was accomplished by means of a stereotaxic instrument (Stoelting Co.) and the coordinates were AP=−0.5 mm […], L=−2.8 mm […], H=−7.0 mm (ventral to dura). The dose for each rat was amyloid β1-40 (4 μg) and ibotenic acid (1 μg) in 1 μl of saline. The injection was completed in 20 min, and the needle was withdrawn 10 min later. Then the skin was sutured.
(§3) Episarsasapogenin cathylate, sarsasapogenin cathylate, episarsasapogenin ethylsuccinate (comparison compound), episarsasapogenin, epismilagenin and diosgenin (all at a dosage of 18 mg/kg/day) were administered to animals as stable suspensions in CMC-Na (0.5%) once daily through a gastric tube. The control and the Alzheimer's model group were given the same volume of CMC-Na (0.5%) once daily. The drugs and vehicles were given for a period of two months, starting 20 days before operation.
The effect of test compounds on memory was assessed using the step-through test. A 60×15×15 cm box, divided into 2 equally sized rooms, one dark room with copper rod base, which was electrically charged (40 V ac) when in use, while the other was a light room but not electrically charged. Between the two rooms there is an opening (hole) for the rat to go through. The experiment is carried out for each rat on two consecutive days. The first day is for training; when the rat is adapted in the box for the first 3 min, then put in the light room, with its back toward the hole, and the copper rods of the dark room are charged for 5 min. The second day is for testing, when the number of crosses in 5 min are recorded. Improvements in memory are signalled by a reduction in the number of crosses.

muscarinic receptor [1] = test: Alzheimer's disease model (amyloid β + ibotenic acid): brain muscarinic receptor density by 3H-QNB; assay type: in vivo, rat; details: Alzheimer's model rats; for brain muscarinic receptor density (in words): 18 mg/kg/day; for Muscarinic receptor Density: 18 mg/kg/day by gastric tube for two months, * p < 0.05
From the text: as §1, §2, §3
The brain samples were homogenised, centrifuged, and the pellet of centrifugation at 27000×g was re-homogenised and used for measurement. The concentration of ^3H-QNB was chosen at the saturation range. After incubation and separation, the bound portion was measured by liquid scintillation counter.

muscarinic receptor [2] = test: Muscarinic receptor density in brain of aged rats (dual-site competitive 3H-QNB binding); assay type: in vivo, rat; details: 18 mg kg−1 day−1 in food for three months
Protocol: (§4) Aged Sprague-Dawley rats aged were divided randomly into 4 groups, one control and groups treated for three months with either sarsasapogenin, episarsasapogenin cathylate or smilagenin (18 mg kg^−1 day^−1, n=10). A control group (n=14) of untreated young rats was also included in the study. The daily dose of drug was mixed in a minimum amount of food and was administered every morning separately to each rat.
Tissue preparation: Brains were removed quickly after decapitation, frozen in dry ice, and transferred to a freezer. The brains were homogenised and the pellet was finally suspended in buffer.
Dual-site competitive ligand binding assay: ^3H-QNB (quinuclinidyl benzilate) was used as the radio-ligand which was non-selective to M receptor subtypes in vitro. Pirenzipine was used as the selective non-radioactive competing agent. Protein concentration was determined by the micro-Lowry method.

muscarinic receptor [3] = test: Cell based assay: muscarinic receptor number in transfected CHO cells by [3H]NMS binding; design: species or system Chinese hamster; details: CHO cells expressing muscarinic receptor
From the text: Chinese hamster ovary (CHO) cells transfected with a vector coding for a muscarinic receptor and/or beta adrenoreceptor. The cell line used for the majority of the experiments was a cell line expressing a muscarinic receptor.
The effects of epismilagenin cathylate, sarsasapogenin cathylate, episarsasapogenin cathylate, episarsasapogenin succinate, epismilagenin acetate and sarsasapogenin on the expression of m receptors in CHO cells transfected with vector for the m receptor were investigated. Receptor numbers were assayed using [^3H]NMS binding and subtracting non-specific binding. Compounds were dissolved in dimethyl sulphoxide (DMSO) and DMSO was used as a control.
Chinese hamster ovary (CHO) cells expressing high levels of muscarinic receptor (˜2.2 pmol mg protein^−1) were plated on a 24 well plate, 1 day before the start of the experiment. The culture medium was replaced with medium containing vehicle (DMSO) or the compounds.
The cells were incubated for 2/3 days, then after a medium change, cells were incubated for a further 2/3 days. The cells were incubated with a saturating concentration of labelled N-methyl-scopolamine, ([^3H]NMS). Cells were washed with ice cold phosphate-buffered saline (PBS) (3×) and bound [^3H]NMS determined by solubilising receptors with RIPA buffer followed by liquid scintillation counting.

[4] = system: rat primary cortical neurons; test: Neuroprotection against glutamate-induced neurodegeneration (LDH release); assay type: cell-based; details: rat primary cortical cultures pre-treated for 24 h, read 24 h after glutamate
Protocol: Rat cortical neurons were cultured for 10 days; at day 10 the medium was changed to a serum-free defined medium. On day 12, 24 hours before glutamate exposure, cultures were washed and medium was replaced with fresh medium containing positive control (β-oestradiol), test compounds (sarsasapogenin, episarsasapogenin cathylate or smilagenin) or vehicle control (DMSO, 0.25%).
On day 13, cultures were exposed to glutamate.
After the incubation period, the cultures were washed with and placed in fresh medium, supplemented with relevant compounds or vehicle to evaluate their protective effects, 24 h after glutamate exposure.
Neuronal cell survival was evaluated by measuring lactate dehydrogenase (LDH) activity released in the media 24 h after test compound treatment or glutamate+test compound exposure, using the CytoTox 96 non-radioactive kit and quantitated by measuring wavelength absorbance at 450 nm.

Aged Sprague-Dawley rats = test: Y-maze learning and memory test in aged rats; assay type: in vivo, rat; details: 18 mg kg−1 day−1 in food for three months
Protocol: as §4
A Y-maze apparatus was used for the learning and memory test. On the floor of each arm of the Y-maze is an array of copper rods to which electric current is applied whenever needed, with adjustable voltage. Each arm is 45 cm long and has a 15 W lamp at the end, which is turned on when needed. After 3 months drug administration, each rat was trained for 7 consecutive days, as follows. For each training session, the rat was put into one arm of the Y-maze, after two minutes rest, an electrical current was applied to the copper rods and the lamp of the clockwise arm was illuminated to indicate the non-stimulation area. If the rat went into that arm, one correct response was recorded, otherwise, one wrong response was recorded. This stimulation-response test was repeated 20 times each day, with a pause of 5 sec between each two consecutive tests. The number of correct responses following the twenty tests on the seventh day was used to express learning ability, (the higher the number the better the learning ability). The rats were then left resting for 30 days and the procedure was repeated once more. The number of correct responses of the 20 tests after the 30 day rest period was used to represent the memory ability

With `C[C@@H]1CC[C@@]2(OC1)O[C@H]1C[C@H]3[C@@H]4CC=C5C[C@@H](O)CC[C@]5(C)[C@H]4CC[C@]3(C)[C@H]1[C@@H]2C` [diosgenin, reference compound] the “Step through test Error No” value (Sprague Dawley rats) was 3.75 ± 1.49, the “number of wrong responses in step-through test (in words)” value (from here on “number of wrong responses”) (Sprague Dawley rats) was “ineffective in decreasing the number of wrong responses” and the “brain muscarinic receptor density (in words)” value (muscarinic receptor [1]) was “did not significantly change the muscarinic receptor density”. The “Muscarinic receptor Density” value (muscarinic receptor [1]) was 770 ± 68 fmol/mg/protein.
`CCOC(=O)O[C@@H]1CC[C@@]2(C)[C@H](CC[C@@H]3[C@@H]2CC[C@]2(C)[C@@H]4[C@H](C[C@@H]32)O[C@]2(CC[C@H](C)CO2)[C@H]4C)C1` [episarsasapogenin cathylate, 3-Ethoxycarbonyl 5β,20α,22α,25S-spirostan-3α-ol] was tested, and the “Step through test Error No” value (Sprague Dawley rats) was 1.36 ± 0.92*, the “number of wrong responses” value (Sprague Dawley rats) was “significantly decreased the number of wrong responses” and the “muscarinic receptor number in brain” value (muscarinic receptor [2]) was “significantly restored the muscarinic receptor number”. For the same compound, the “effect on decrease in muscarinic receptor number over the culturing period” value (shortened to “effect on decrease”) (muscarinic receptor [3]) was “prevents the decrease in muscarinic receptor number”, the “glutamate-induced neurodegeneration (LDH release)” value [4] was “significant reduction in the glutamate-induced neurodegeneration” and the “learning and memory ability (Y-maze)” value (Aged Sprague-Dawley rats) was “restored the learning and memory ability”. For the same compound, the “brain muscarinic receptor density (in words)” value (muscarinic receptor [1]) was “significant elevation in brain muscarinic receptor density” and the “Muscarinic receptor Density” value (muscarinic receptor [1]) was 877 ± 89* fmol/mg/protein.
`CCOC(=O)CCC(=O)OC1CCC2(C)C(CCC3C2CCC2(C)C3CC3OC4(CCC(C)CO4)C(C)C32)C1` (centres unmarked) [episarsasapogenin ethylsuccinate, reference compound] was tested, and the “Step through test Error No” value (Sprague Dawley rats) was 3.73 ± 1.35, the “number of wrong responses” value (Sprague Dawley rats) was “ineffective in decreasing the number of wrong responses” and the “brain muscarinic receptor density (in words)” value (muscarinic receptor [1]) was “did not significantly change the muscarinic receptor density”. The “Muscarinic receptor Density” value (muscarinic receptor [1]) was 774 ± 79 fmol/mg/protein.
With `CC1CCC2(OC1)OC1CC3C4CCC5CC(OC(=O)CCC(=O)O)CCC5(C)C4CCC3(C)C1C2C` (stereo not drawn) [episarsasapogenin succinate, mono-3α,5β,20α,22α,25S-spirostanyl succinate] the “effect on decrease” value (muscarinic receptor [3]) was “prevents the decrease in muscarinic receptor number”.
For `C[C@H]1CC[C@@]2(OC1)O[C@H]1C[C@H]3[C@@H]4CC[C@@H]5C[C@H](O)CC[C@]5(C)[C@H]4CC[C@]3(C)[C@H]1[C@@H]2C` [episarsasapogenin], the “Step through test Error No” value (Sprague Dawley rats) was 1.50 ± 1.18*, the “number of wrong responses” value (Sprague Dawley rats) was “significantly decreased the number of wrong responses” and the “brain muscarinic receptor density (in words)” value (muscarinic receptor [1]) was “significant elevation in brain muscarinic receptor density”. The “Muscarinic receptor Density” value (muscarinic receptor [1]) was 869 ± 104* fmol/mg/protein.
`CCOC(=O)O[C@@H]1CC[C@@]2(C)[C@H](CC[C@@H]3[C@@H]2CC[C@]2(C)[C@@H]4[C@H](C[C@@H]32)O[C@]2(CC[C@@H](C)CO2)[C@H]4C)C1` [epismilagenin cathylate, 3-Ethoxycarbonyl 5β,20α,22α,25R-spirostan-3α-ol] was tested, and the “effect on decrease” value (muscarinic receptor [3]) was “prevents the decrease in muscarinic receptor number”.
`C[C@@H]1CC[C@@]2(OC1)O[C@H]1C[C@H]3[C@@H]4CC[C@@H]5C[C@H](O)CC[C@]5(C)[C@H]4CC[C@]3(C)[C@H]1[C@@H]2C` [epismilagenin] was tested, and the “Step through test Error No” value (Sprague Dawley rats) was 1.73 ± 0.91*, the “number of wrong responses” value (Sprague Dawley rats) was “significantly decreased the number of wrong responses” and the “brain muscarinic receptor density (in words)” value (muscarinic receptor [1]) was “significant elevation in brain muscarinic receptor density”. The “Muscarinic receptor Density” value (muscarinic receptor [1]) was 877 ± 90* fmol/mg/protein.
`CCOC(=O)O[C@H]1CC[C@@]2(C)[C@H](CC[C@@H]3[C@@H]2CC[C@]2(C)[C@@H]4[C@H](C[C@@H]32)O[C@]2(CC[C@H](C)CO2)[C@H]4C)C1` [sarsasapogenin cathylate, 3-Ethoxycarbonyl 5β,20α,22α,25S-spirostan-3-β-ol] was tested, and the “Step through test Error No” value (Sprague Dawley rats) was 1.36 ± 1.03*, the “number of wrong responses” value (Sprague Dawley rats) was “significantly decreased the number of wrong responses” and the “effect on decrease” value (muscarinic receptor [3]) was “prevents the decrease in muscarinic receptor number”. For the same compound, the “brain muscarinic receptor density (in words)” value (muscarinic receptor [1]) was “significant elevation in brain muscarinic receptor density” and the “Muscarinic receptor Density” value (muscarinic receptor [1]) was 916 ± 158* fmol/mg/protein.
In the case of `C[C@H]1CC[C@@]2(OC1)O[C@H]1C[C@H]3[C@@H]4CC[C@@H]5C[C@@H](O)CC[C@]5(C)[C@H]4CC[C@]3(C)[C@H]1[C@@H]2C` [sarsasapogenin], the “muscarinic receptor number in brain” value (muscarinic receptor [2]) is reported as “significantly restored the muscarinic receptor number”, the “effect on decrease” value (muscarinic receptor [3]) is reported as “prevents the decrease in muscarinic receptor number” and the “glutamate-induced neurodegeneration (LDH release)” value [4] is reported as “significant reduction in the glutamate-induced neurodegeneration”. The “learning and memory ability (Y-maze)” value (Aged Sprague-Dawley rats) was “restored the learning and memory ability”.
For `C[C@@H]1CC[C@@]2(OC1)O[C@H]1C[C@H]3[C@@H]4CC[C@@H]5C[C@@H](O)CC[C@]5(C)[C@H]4CC[C@]3(C)[C@H]1[C@@H]2C` [smilagenin], the “muscarinic receptor number in brain” value (muscarinic receptor [2]) was “significantly restored the muscarinic receptor number”, the “glutamate-induced neurodegeneration (LDH release)” value [4] was “significant reduction in the glutamate-induced neurodegeneration” and the “learning and memory ability (Y-maze)” value (Aged Sprague-Dawley rats) was “restored the learning and memory ability”.
